Data on seven molecules can be found in PubChem BioAssay AID1259407 (Chemical Carcinogenesis Research Information System (CCRIS), 2018).

This series relates to CCRIS mutagenicity, Ames/micronucleus/aberration tests. In words: CCRIS mutagenicity studies.
The mark [1] stands for this setting: Test System: AMES SALMONELLA TYPHIMURIUM, Strain/Indicator: TA98, Metabolic Activation: NONE, Method: STANDARD PLATE.
The mark [2] stands for this setting: Test System: AMES SALMONELLA TYPHIMURIUM, Strain/Indicator: TA98, Metabolic Activation: RAT, LIVER, S-9, AROCLOR 1254, Method: STANDARD PLATE.
[3] abbreviates: Test System: AMES SALMONELLA TYPHIMURIUM, Strain/Indicator: TA100, Metabolic Activation: NONE, Method: STANDARD PLATE.
The mark [4] stands for this setting: Test System: AMES SALMONELLA TYPHIMURIUM, Strain/Indicator: TA100, Metabolic Activation: RAT, LIVER, S-9, AROCLOR 1254, Method: STANDARD PLATE.
The mark [5] stands for this setting: Test System: AMES SALMONELLA TYPHIMURIUM, Strain/Indicator: TA1535, Metabolic Activation: RAT, LIVER, S-9, AROCLOR 1254, Method: STANDARD PLATE.
[6] abbreviates: Test System: AMES SALMONELLA TYPHIMURIUM, Strain/Indicator: TA1535, Metabolic Activation: NONE, Method: STANDARD PLATE.

Structures are written as SMILES. Calls of active or inactive are those of the source. How the calls were made is not given here.

For the molecule `CC1NC(C(=O)O)Cc2c1[nH]c1ccccc21` (stereo unspecified), the mutagenic call was “inactive; negative” (Test System: AMES SALMONELLA TYPHIMURIUM, Strain/Indicator: TA97, Metabolic Activation: NONE, Method: STANDARD PLATE); “inactive; negative” (Test System: AMES SALMONELLA TYPHIMURIUM, Strain/Indicator: TA97, Metabolic Activation: RAT, LIVER, S-9, AROCLOR 1254, Method: STANDARD PLATE); “inactive; negative” under setting [1]; “inactive; negative” under setting [2]; “inactive; negative” under setting [3]; “inactive; negative” under setting [4].
`O=[N+]([O-])/C=C/c1ccco1`: the mutagenic call is “inactive; negative” (End Point: IN VITRO MICRONUCLEUS, Test System: HUMAN LYMPHOCYTES, Metabolic Activation: NONE); “inactive; negative” (End Point: IN VITRO MICRONUCLEUS, Test System: HUMAN LYMPHOCYTES, Metabolic Activation: S-9); “inactive; negative” (End Point: IN VIVO MICRONUCLEUS, Test System: BONE MARROW, Species: MOUSE, Strain/Sex: CD-1/MALE, Route: INTRAPERITONEAL); “inactive; negative” (Test System: AMES SALMONELLA TYPHIMURIUM, Strain/Indicator: TA98, Metabolic Activation: NONE, Method: PREINCUBATION).
As for `Oc1ccc(-c2ccccc2)cc1`, the mutagenic call is “active; positive” under setting [2] and “inactive; negative” under setting [5].
With `C=CCc1[c-]cccc1.C=CCc1[c-]cccc1.[Pt+2].c1ccc(P(c2ccccc2)c2ccccc2)cc1`, the mutagenic call (Test System: AMES SALMONELLA TYPHIMURIUM, Strain/Indicator: TA92, Metabolic Activation: NONE, Method: STANDARD PLATE) is “inactive; negative”; the mutagenic call under setting [1] was “active; positive”; the mutagenic call under setting [3] is “inactive; negative”; the mutagenic call (Test System: AMES SALMONELLA TYPHIMURIUM, Strain/Indicator: TA2410, Metabolic Activation: NONE, Method: STANDARD PLATE) is “inactive; negative”.
Take `C=CC(=C)CCC=C(C)C`: the mutagenic call reads like this: (End Point: E. coli, Strain/Indicator: WP2uvrA/pKM101, Metabolic Activation: None, Method: Preincubation) “inactive; negative”; (End Point: E. coli, Strain/Indicator: WP2uvrA/pKM101, Metabolic Activation: Rat, Liver, S-9, Aroclor 1254 (10%), Method: Preincubation) “inactive; negative”; (End Point: In vivo micronucleus, Test System: Micronucleated normochromatic erythrocytes, Species: Mouse, Strain/Sex: B6C3F1 / Female, Route: Oral) “inactive; negative”; (End Point: In vivo micronucleus, Test System: Micronucleated normochromatic erythrocytes, Species: Mouse, Strain/Sex: B6C3F1 / Male, Route: Oral) “inactive; negative”; (Test System: AMES SALMONELLA TYPHIMURIUM, Strain/Indicator: TA97A, Metabolic Activation: NONE, Method: STANDARD PLATE) “inactive; negative”; (Test System: AMES SALMONELLA TYPHIMURIUM, Strain/Indicator: TA97A, Metabolic Activation: RAT, LIVER, S-9, AROCLOR 1254, Method: STANDARD PLATE) “inactive; negative”. The mutagenic call by setting is: under setting [1], “inactive; negative”; under setting [2], “inactive; negative”; under setting [3], “inactive; negative”; under setting [4], “inactive; negative”; under setting [6], “inactive; negative”; under setting [5], “inactive; negative”. Further, the mutagenic call (Test System: Ames Salmonella typhimurium, Strain/Indicator: TA97, Metabolic Activation: Hamster, Liver, S-9, Aroclor 1254 (10%), Method: Preincubation) is “inactive; negative”; the mutagenic call (Test System: Ames Salmonella typhimurium, Strain/Indicator: TA97, Metabolic Activation: Hamster, Liver, S-9, Aroclor 1254 (30%), Method: Preincubation) was “inactive; negative”; the mutagenic call (Test System: Ames Salmonella typhimurium, Strain/Indicator: TA97, Metabolic Activation: None, Method: Preincubation) is “inactive; negative”; the mutagenic call (Test System: Ames Salmonella typhimurium, Strain/Indicator: TA97, Metabolic Activation: Rat, Liver, S-9, Aroclor 1254 (10%), Method: Preincubation) is “inactive; negative”; the mutagenic call (Test System: Ames Salmonella typhimurium, Strain/Indicator: TA97, Metabolic Activation: Rat, Liver, S-9, Aroclor 1254 (30%), Method: Preincubation) was “inactive; negative”; the mutagenic call (Test System: Ames Salmonella typhimurium, Strain/Indicator: TA98, Metabolic Activation: Hamster, Liver, S-9, Aroclor 1254 (10%), Method: Preincubation) was “inactive; negative”. The mutagenic call runs as follows: (Test System: Ames Salmonella typhimurium, Strain/Indicator: TA98, Metabolic Activation: Hamster, Liver, S-9, Aroclor 1254 (30%), Method: Preincubation) “inactive; negative”; (Test System: Ames Salmonella typhimurium, Strain/Indicator: TA98, Metabolic Activation: None, Method: Preincubation) “inactive; negative”; (Test System: Ames Salmonella typhimurium, Strain/Indicator: TA98, Metabolic Activation: Rat, Liver, S-9, Aroclor 1254 (10%), Method: Preincubation) “inactive; negative”; (Test System: Ames Salmonella typhimurium, Strain/Indicator: TA98, Metabolic Activation: Rat, Liver, S-9, Aroclor 1254 (30%), Method: Preincubation) “inactive; negative”; (Test System: Ames Salmonella typhimurium, Strain/Indicator: TA100, Metabolic Activation: Hamster, Liver, S-9, Aroclor 1254 (10%), Method: Preincubation) “inactive; negative”; (Test System: Ames Salmonella typhimurium, Strain/Indicator: TA100, Metabolic Activation: Hamster, Liver, S-9, Aroclor 1254 (30%), Method: Preincubation) “inactive; negative”. Moreover, the mutagenic call was “inactive; negative” (Test System: Ames Salmonella typhimurium, Strain/Indicator: TA100, Metabolic Activation: None, Method: Preincubation); “inactive; negative” (Test System: Ames Salmonella typhimurium, Strain/Indicator: TA100, Metabolic Activation: Rat, Liver, S-9, Aroclor 1254 (10%), Method: Preincubation); “inactive; negative” (Test System: Ames Salmonella typhimurium, Strain/Indicator: TA100, Metabolic Activation: Rat, Liver, S-9, Aroclor 1254 (30%), Method: Preincubation); “inactive; negative” (Test System: Ames Salmonella typhimurium, Strain/Indicator: TA1535, Metabolic Activation: Hamster, Liver, S-9, Aroclor 1254 (10%), Method: Preincubation); “inactive; negative” (Test System: Ames Salmonella typhimurium, Strain/Indicator: TA1535, Metabolic Activation: Hamster, Liver, S-9, Aroclor 1254 (30%), Method: Preincubation); “inactive; negative” (Test System: Ames Salmonella typhimurium, Strain/Indicator: TA1535, Metabolic Activation: None, Method: Preincubation). Besides, the mutagenic call reads like this: (Test System: Ames Salmonella typhimurium, Strain/Indicator: TA1535, Metabolic Activation: Rat, Liver, S-9, Aroclor 1254 (10%), Method: Preincubation) “inactive; negative”; (Test System: Ames Salmonella typhimurium, Strain/Indicator: TA1535, Metabolic Activation: Rat, Liver, S-9, Aroclor 1254 (30%), Method: Preincubation) “inactive; negative”; (Test System: CHINESE HAMSTER V-79, Strain/Indicator: V-79/6-THIOGUANINE (HGPRT), Metabolic Activation: NONE, Method: PREINCUBATION) “inactive; negative”; (Test System: CHINESE HAMSTER V-79, Strain/Indicator: V-79/6-THIOGUANINE (HGPRT), Metabolic Activation: RAT, LIVER, S-9, Method: PREINCUBATION) “inactive; negative”; (Test System: E. coli, Strain/Indicator: WP2 IC185 trpE65, Metabolic Activation: None, Method: Plate incorporation (Test material solvent: ethanol)) “inactive; negative”; (Test System: E. coli, Strain/Indicator: WP2 IC202 trpE65 oxyR/pKM101, Metabolic Activation: None, Method: Plate incorporation (Test material solvent: ethanol)) “inactive; negative”.
As for `CCOP(=S)(OCC)SCCSCC`, the mutagenic call is “active; positive at 24 and 48 hr compared with the concurrent control, but equivocal com” (End Point: In vivo micronucleus, Test System: Micronucleated polychromatic erythrocytes, Species: Mouse, Strain/Sex: Hsd/Win: NMRI/Male and female, Route: Intraperitoneal); “active; positive” under setting [6]; “active; positive” (Test System: AMES SALMONELLA TYPHIMURIUM, Strain/Indicator: TA1535, Metabolic Activation: S-9 MIX, Method: STANDARD PLATE); “inactive; negative” (Test System: E. coli polA test, Strain/Indicator: (K12)p3478/W3110, Metabolic Activation: None, Method: Plate test with 24 hr exposure); “inactive; negative” (Test System: E. coli polA test, Strain/Indicator: (K12)p3478/W3110, Metabolic Activation: S-9, Method: Plate test with 24 hr exposure); “active; positive” (Test System: UDS HUMAN FIBROBLASTS, Strain/Indicator: THY INCORP (NON-S-PHASE), Metabolic Activation: NONE, Method: LIQUID SCINTILLATION COUNTING).
`CS(=O)(=O)n1ncc(Cl)c(Cl)c1=O`: the mutagenic call by setting is: under setting [1], “inactive; negative”; under setting [2], “inactive; negative”; under setting [3], “active; positive”; under setting [4], “active; positive”; under setting [6], “inactive; negative”; under setting [5], “inactive; negative”. The mutagenic call reads like this: (Test System: AMES SALMONELLA TYPHIMURIUM, Strain/Indicator: TA1537, Metabolic Activation: NONE, Method: STANDARD PLATE) “inactive; negative”; (Test System: AMES SALMONELLA TYPHIMURIUM, Strain/Indicator: TA1537, Metabolic Activation: RAT, LIVER, S-9, AROCLOR 1254, Method: STANDARD PLATE) “inactive; negative”.
